# Like-named read-outs stand apart in the source and are kept apart here.
# Columns and labels:
# PTZ-treated mice = assay: Acute PTZ (pentylenetetrazol-induced seizure) assay; type: in vivo, Male CD-1 mice; conditions: 3 mg/kg oral gavage 60 min prior to PTZ 120 mg/kg s.c.; observed 30 min
# Description: The anticonvulsant effect of test compounds were assessed in the pentylenetetazol-induced seizure assay in mice similar to methods described in Giardina & Gasior (2009) Curr Protoc Pharmacol., Chapter 5. Male CD-1 mice were housed in groups of five under controlled conditions (temperature of 22±2° C. and 12:12 light-dark cycle, lights on at 8:00 am) and water and food were available ad libitum. The mice were housed for 1 week prior to behavioral testing, at which time they weighed 25-35 g. Pentylenetetrazol (PTZ, Sigma) was dissolved in sterile 0.9% saline at a concentration of 12 mg/mL concentration for subcutaneous administration. Test compounds were formulated and administered via oral gavage at 60 minutes prior to PTZ injection. AU solutions were made fresh and were given in a volume of 10 ml/kg body weight.
# Mice were acclimated to the test room for at least 30 min before compound administration. Mice were randomized into at least four test groups (vehicle and at least three doses of the test compound) with 10 mice per group. […] Following the drug pretreatment time, the mice were injected s.c. with PTZ (120 mg/kg). Immediately following the PTZ injection, mice were individually placed into observation chambers (25×15×15 cm) and a three-channel timer was started. Each mouse was continuously observed for 30 min and the following behaviors were recorded by observers blinded to the treatments: 1) latency to clonic convulsions that persist for 3 sec and followed by an absence of righting reflex 2) latency to tonic convulsions, characterized by the rigid extension of all four limbs that exceeded a 90 degree angle with the body 3) latency to death 4) number of clonic and tonic convulsions. Data are presented as mean±S.E.M and one-way analysis of variance with Dunnetfs or Bonferroni's post-hoc test was used to detect significant differences in latency and number between the vehicle and dose group, p values<0.05 were regarded as statistically significant.
# α1β2γ2 GABAA receptor = target: T1, α1β2γ2 GABAA receptor (Homo sapiens, UniProt P14867+P47870); assay: Patch clamp electrophysiology assay of recombinant α1β2γ2 GABAA receptors (potentiation of 2 μM GABA-evoked Cl- current); type: cell-based; conditions: HEK293T cells stably transfected with α1β2γ2 GABAA; whole cell, 2 μM GABA, -80 mV
# T1 construct: expressed in transfected cells
# T1 sequence (P14867 28-456): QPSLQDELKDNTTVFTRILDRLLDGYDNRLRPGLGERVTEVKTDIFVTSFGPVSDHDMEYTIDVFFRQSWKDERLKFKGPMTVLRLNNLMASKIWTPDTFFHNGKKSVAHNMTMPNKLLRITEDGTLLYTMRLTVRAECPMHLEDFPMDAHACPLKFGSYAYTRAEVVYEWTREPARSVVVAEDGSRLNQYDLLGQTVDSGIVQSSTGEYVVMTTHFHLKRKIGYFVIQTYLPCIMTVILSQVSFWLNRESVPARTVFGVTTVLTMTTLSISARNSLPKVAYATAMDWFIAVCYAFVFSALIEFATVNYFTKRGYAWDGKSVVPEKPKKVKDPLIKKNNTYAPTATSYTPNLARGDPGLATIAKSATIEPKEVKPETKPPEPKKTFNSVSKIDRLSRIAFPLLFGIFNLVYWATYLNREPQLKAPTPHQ
# T1 sequence (P47870 25-512 limits assumed): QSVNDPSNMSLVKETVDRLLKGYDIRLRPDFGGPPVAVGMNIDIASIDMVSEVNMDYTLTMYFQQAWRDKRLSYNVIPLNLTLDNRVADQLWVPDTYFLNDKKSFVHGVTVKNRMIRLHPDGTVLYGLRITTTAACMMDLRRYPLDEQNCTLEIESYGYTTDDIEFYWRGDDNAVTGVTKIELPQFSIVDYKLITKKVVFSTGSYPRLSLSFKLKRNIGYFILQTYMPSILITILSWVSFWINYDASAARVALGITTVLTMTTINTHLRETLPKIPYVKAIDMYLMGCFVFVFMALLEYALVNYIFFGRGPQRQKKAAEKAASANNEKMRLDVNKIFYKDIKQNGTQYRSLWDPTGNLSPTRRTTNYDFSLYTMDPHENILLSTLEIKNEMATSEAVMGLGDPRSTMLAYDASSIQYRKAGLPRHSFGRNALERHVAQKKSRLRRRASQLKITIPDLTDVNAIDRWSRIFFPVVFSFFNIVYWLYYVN
# T1 sequence (P18507 40-475 partner): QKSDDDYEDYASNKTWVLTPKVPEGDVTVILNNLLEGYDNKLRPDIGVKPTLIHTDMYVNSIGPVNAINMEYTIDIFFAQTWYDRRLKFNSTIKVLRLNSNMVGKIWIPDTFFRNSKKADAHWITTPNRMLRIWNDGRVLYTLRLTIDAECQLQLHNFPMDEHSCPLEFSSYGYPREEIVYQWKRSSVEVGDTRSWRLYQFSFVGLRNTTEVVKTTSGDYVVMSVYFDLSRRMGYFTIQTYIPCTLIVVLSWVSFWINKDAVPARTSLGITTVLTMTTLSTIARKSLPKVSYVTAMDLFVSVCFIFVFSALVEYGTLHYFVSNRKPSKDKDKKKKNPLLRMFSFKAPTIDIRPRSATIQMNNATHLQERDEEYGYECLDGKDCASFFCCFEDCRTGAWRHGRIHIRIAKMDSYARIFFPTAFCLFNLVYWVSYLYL
# In short: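 Whole-cell voltage clamp at −80 mV on HEK293T cells stably expressing human α1β2γ2 GABAA. Compounds applied for 3 min, then 2 μM GABA (EC10–EC20) applied to assess potentiation of Cl− current. Ascending 0.003–10 μM concentrations tested on each cell, 180 s apart, with Rm >500 MΩ, Ra <15 MΩ and leak <100 pA as cell criteria.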
# [1] = Mouse PK study (i.v. and p.o.); type: in vivo; conditions: plasma, male CD1 mice
# Description: Test compounds were dosed to male CD1 mice at 5 mg/kg by oral gavage (p.o.) or 1 mg/kg by intravenous injection (i.v.). Blood samples were taken at 0.083, 0.25, 0.5, 1.0, 3.0, 6.0 and 24 hours post i.v. dosing and at 0.25, 0.5, 1.0, 3.0, 6.0 and 24 hours post p.o. dosing. The plasma concentration of compounds were determined by HPLC.
compound,measurement,setting,value
"C[C@@]1(O)CC[C@H]2[C@H](CC[C@@H]3[C@@H]2CC[C@]2(C)[C@@H](C(=O)Cn4nnn(-c5cn[nH]c5)c4=O)CC[C@@H]32)C1 [Example 28, 1-(2-((3R,5R,8R,9R,10S,13S,14S,17S)-3-hydroxy-3,13-dimethylhexadecahydro-1H-cyclopenta[a]phenanthren-17-yl)-2-oxoethyl)-4-(1H-pyrazol-4-yl)-1,4-dihydro-5H-tetrazol-5-one]",Clonic Seizure Latency (sec) (Mean),PTZ-treated mice,573.1 ± 124.9 s
same,Clonic Seizure Number (Mean),PTZ-treated mice,1.7 ± 0.3
same,Mortality (%),PTZ-treated mice,40%
same,Onset of death (sec) (Mean),PTZ-treated mice,1594.7 ± 107.0 s
same,Tonic Seizure Latency (sec) (Mean),PTZ-treated mice,1586.3 ± 109.8 s
same,Tonic Seizure Number (Mean),PTZ-treated mice,0.4 ± 0.2
same,EC50,α1β2γ2 GABAA receptor,140 nM
same,clearance,"[1]; iv, 1 mg/kg i.v.",7.17 mL/min/kg
same,AUC(0-t),"[1]; iv, 1 mg/kg i.v., read-out: AUClast (hr*ng/mL) i.v.",2180 ng·h/mL
same,half-life,"[1]; iv, 1 mg/kg i.v., read-out: T1/2 (hr) i.v. (converted)",6.12 h
same,Vd,"[1]; iv, 1 mg/kg i.v., read-out: Vss",2.9 L/kg
same,Cmax,"[1]; po, 5 mg/kg p.o.",563 ng/mL
same,Tmax,"[1]; po, 5 mg/kg p.o.",6 h
same,bioavailability,"[1]; po, 5 mg/kg p.o. vs 1 mg/kg i.v.",77.3%
same,AUC(0-t),"[1]; po, 5 mg/kg p.o., read-out: AUClast (hr*ng/mL) p.o.",8420 ng·h/mL
